Results: patent US20240024444A1, “Combined Preparation” (MEDRx Co., Ltd., priority 2020, published 2024)

Assay: In vitro skin permeability test (Franz diffusion cell)
Format: in vitro ADME, rat (Slc: Wistar)
Method: In this test, a Franz diffusion cell (effective diffusion area: 1.0 cm^2, PermeGear, Hellertown, US) was used, and the abdominal skin (shaved before the skin is removed) of 5-week-old male rats (Slc: Wistar) was used.
The abdominal skin of rats was cut to about […] (23 mm round) and set in a receptor cell filled with 8.0 mL of the receptor solution (saline of 0.1% bovine serum albumin (BSA) (purchased from FUJIFILM Wako Pure Chemical Corporation)). The receptor solution was kept at 32° C. in a circulator water bath at a constant temperature. After 2, 4, 6, 8 and 24 hours, the receptor solution (0.2 mL) was collected and each of the collected solution was used as samples. After collecting the samples, the same amount of the receptor solution was added into the receptor cell to keep the volume of the receptor solution constant. […] The HPLC condition was as follows: Column: YMC Pack Pro C18 RS 5 μm, 4.6×150 mm; YMC CO., LTD., Mobile Phase: acetonitrile/0.1% trifluoroacetic acid (23/77, v/v) at 35° C., Flow Rate: 1.0 mL/min. The wavelength of the UV detector was set to 215 nm.

For `CCOCc1nc2c(N)nc3ccccc3c2n1CC(C)(C)O` [R848, Resiquimod], the “accumulative amount of the co-administered R848 for 24 hours” value (R848 co-administered with WT1 peptide) was “about 350 μg/cm^2” and the “accumulative amount of the individually-administered R848 for 24 hours” value (R848 individually administered) was “about 1500 μg/cm^2”.
